pIC50: −log10 of the molar value. Structures can show the parent of a compound that is named as a salt.
Biological target: T1, recombinant IRAK-4 kinase (Homo sapiens, UniProt Q9NWZ3)
T1 construct: purchased Millipore, USA
T1 sequence (Q9NWZ3 1-460): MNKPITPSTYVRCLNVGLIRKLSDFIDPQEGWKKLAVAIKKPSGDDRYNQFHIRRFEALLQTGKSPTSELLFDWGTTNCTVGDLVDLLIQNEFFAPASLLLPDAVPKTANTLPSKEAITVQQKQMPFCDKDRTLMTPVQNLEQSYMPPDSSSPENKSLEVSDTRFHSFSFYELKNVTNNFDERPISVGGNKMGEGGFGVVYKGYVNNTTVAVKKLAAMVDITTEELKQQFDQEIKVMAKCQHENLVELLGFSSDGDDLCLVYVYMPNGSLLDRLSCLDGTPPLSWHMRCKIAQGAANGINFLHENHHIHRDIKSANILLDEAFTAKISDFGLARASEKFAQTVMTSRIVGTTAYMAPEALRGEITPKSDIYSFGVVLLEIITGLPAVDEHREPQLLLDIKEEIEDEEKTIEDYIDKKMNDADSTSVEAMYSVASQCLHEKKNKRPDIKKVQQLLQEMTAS
Test: IRAK-4 biochemical assay (TR-FRET)
Details: IRAK-4 enzyme, 20 μM ATP; for inhibition at 0.1 µM: compound at 0.1 μM; for inhibition at 1 µM: compound at 1 μM; for pIC50: dose response
Protocol: Compounds were tested for their potential to inhibit IRAK-4 enzyme in a TR-FRET assay using recombinant IRAK-4 kinase from Millipore, USA. The assay buffer was 50 mM Tris-HCl pH 7.5, 20 mM MgCl2, 1 mM EGTA, 2 mM DTT, 3 mM MnCl2 and 0.01% Tween 20.5 ng of IRAK-4 kinase was used for the assay. After pre-incubation of enzyme with test compound for 30 minutes at room temperature, a substrate mixture containing 100 nM Biotin Histone H3 (Millipore, USA) and 20 μM ATP (Sigma, USA) was added and the reaction was incubated for 30 min. Post incubation, the reaction was stopped by the addition of stop mix containing 40 mM EDTA, 1 nM of Europium-Anti-Phospho-Histone H3 (Ser10) antibody (Perkin Elmer, USA) and 20 nM SureLight Allophycocyanin-Streptavidin (Perkin Elmer, USA). The fluorescence emission at 615 nm and 665 nm were measured at an excitation of 340 nm and the percent inhibition was estimated from the ratio of the fluorescence intensities [(F665/F615)×10000]. […] The IC50 values were estimated by fitting the dose-response data to sigmoidal dose response (variable slope), curve fitting program using Graphpad Prism software Version 6.01.

| SMILES | inhibition at 0.1 µM [%] | inhibition at 1 µM [%] | pIC50 |
| --- | --- | --- | --- |
| Cc1cc(-c2nc(C(=O)Nc3cc4nn(C)cc4cc3N3CCCC(F)C3)co2)ccn1 (stereo not drawn) [Example 14, N—(5-(3-fluoropiperidin-1-yl)-2-methyl-2H-indazol-6-yl)-2-(2-methylpyridin-4-yl)oxazole-4-carboxamide] | 94 | 96 | > 7.00 |
| Cc1cc(-c2nc(C(=O)Nc3cc4c(cnn4C)cc3N3CC[C@H](O)C3)co2)ccn1 [Example 11, (S)—N—(5-(3-hydroxypyrrolidin-1-yl)-1-methyl-1H-indazol-6-yl)-2-(2-methylpyridin-4-yl)oxazole-4-carboxamide hydrochloride] | 95 | 98 | > 7.00 |
| CC(=O)Nc1cc(-c2nc(C(=O)Nc3cc4c(cnn4C)cc3N3CC[C@H](O)C3)co2)ccn1 [Example 15] | 83 | 99 | > 7.00 |
| Cn1ncc2cc(N3CCCCC3)c(NC(=O)c3coc(N4CC[C@H](N)C4)n3)cc21 [Example 4, (S)-2-(3-aminopyrrolidin-1-yl)—N—(1-methyl-5-(piperidin-1-yl)-1H-indazol-6-yl)oxazole-4-carboxamide] |  | 84 | 6.60 to 7.00 |
| Cn1cc2cc(N3CCCCC3)c(NC(=O)c3coc(N4CC[C@H](N)C4)n3)cc2n1 [Example 5, (S)-2-(3-aminopyrrolidin-1-yl)—N—(2-methyl-5-(piperidin-1-yl)-2H-indazol-6-yl)oxazole-4-carboxamide] | 95 | 82 | < 6.60 |
| Cn1cc2cc(N3CCCCC3)c(NC(=O)c3coc(N4CC[C@H](O)C4)n3)cc2n1 [Example 6, (S)-2-(3-hydroxypyrrolidin-1-yl)—N—(2-methyl-5-(piperidin-1-yl)-2H-indazol-6-yl)oxazole-4-carboxamide] | 96 | 90 | 6.60 to 7.00 |
| Cc1cc(-c2nc(C(=O)Nc3cc4c(cnn4C)cc3N3C4CCC3CC(O)C4)co2)ccn1 (stereo not drawn) [Example 38, N—(5-(3-hydroxy-8-azabicyclo[3.2.1]octan-8-yl)-1-methyl-1H-indazol-6-yl)-2-(2-methylpyridin-4-yl)oxazole-4-carboxamide] | 5 | 77 | < 6.60 |
| Cn1ncc2cc(N3CC[C@H](O)C3)c(NC(=O)c3coc(-c4cccnc4N)n3)cc21 [Example 23, (S)-2-(2-aminopyridin-3-yl)—N—(5-(3-hydroxypyrrolidin-1-yl)-1-methyl-1H-indazol-6-yl)oxazole-4-carboxamide] | 81 | 95 | > 7.00 |
| Cn1ncc2cc(N3CC[C@H](O)C3)c(NC(=O)c3coc(C4=CCNCC4)n3)cc21 [Example 34, (S)—N—(5-(3-hydroxypyrrolidin-1-yl)-1-methyl-1H-indazol-6-yl)-2-(1,2,3,6-tetrahydropyridin-4-yl)oxazole-4-carboxamide hydrochloride] | 0 | 41 |  |
| Cn1ncc2cc(N3CCCCC3)c(NC(=O)c3cccc(N4CC[C@H](N)C4)n3)cc21 [Example 8, (S)-6-(3-aminopyrrolidin-1-yl)—N—(1-methyl-5-(piperidin-1-yl)-1H-indazol-6-yl)picolinamide] | 90 | 56 | < 6.60 |

Other lines, results leading:

| inhibition at 0.1 µM [%] | inhibition at 1 µM [%] | pIC50 | SMILES |
| --- | --- | --- | --- |
| 83 | 97 | > 7.00 | CCc1cc(-c2nc(C(=O)Nc3cc4c(cnn4C)cc3N3CC[C@H](O)C3)co2)ccn1 [Example 42, (S)-2-(2-ethylpyridin-4-yl)—N—(5-(3-hydroxypyrrolidin-1-yl)-1-methyl-1H-indazol-6-yl)oxazole-4-carboxamide hydrochloride] |
| 25 | 80 | < 6.60 | Cn1ncc2cc(N3CC[C@H](O)C3)c(NC(=O)c3cnn4cccnc34)cc21 [Example 48, (S)—N—(5-(3-hydroxypyrrolidin-1-yl)-1-methyl-1H-indazol-6-yl)pyrazolo[1,5-a]pyrimidine-3-carboxamide hydrochloride] |
| 0 | 37 |  | Cn1ncc2cc(N3CC[C@H](O)C3)c(NC(=O)c3coc(N4CCNCC4)n3)cc21 [Example 31, (S)—N—(5-(3-hydroxypyrrolidin-1-yl)-1-methyl-1H-indazol-6-yl)-2-(piperazin-1-yl)oxazole-4-carboxamide hydrochloride] |
| 93 | 97 | > 7.00 | Cn1ncc2cc(N3CC[C@H](O)C3)c(NC(=O)c3coc(-c4ccnc(C5CC5)c4)n3)cc21 [Example 46, (S)-2-(2-cyclopropylpyridin-4-yl)—N—(5-(3-hydroxypyrrolidin-1-yl)-1-methyl-1H-indazol-6-yl)oxazole-4-carboxamide hydrochloride] |
| 88 | 97 | < 6.60 | Cc1cc(-c2nc(C(=O)Nc3cc4[nH]ncc4cc3N3CC[C@H](O)C3)co2)ccn1 [Example 27, (S)—N—(5-(3-hydroxypyrrolidin-1-yl)-1H-indazol-6-yl)-2-(2-methylpyridin-4-yl)oxazole-4-carboxamide] |
| 95 | 98 | > 7.00 | Cc1cc(-c2nc(C(=O)Nc3cc4c(cnn4C)cc3N3CCC(O)(CO)CC3)co2)ccn1 [Example 40, N-(5-(4-hydroxy-4-(hydroxymethyl)piperidin-1-yl)-1-methyl-1H-indazol-6-yl)-2-(2-methylpyridin-4-yl)oxazole-4-carboxamide] |
| 2 | 1 |  | Cc1cc(-c2nc(C)c(C(=O)Nc3cc4c(cnn4C)cc3N3CC[C@H](O)C3)o2)ccn1 [Example 36, hydrochloride] |
| 0 | 17 |  | Cc1cc(-c2nc(C(=O)Nc3cc4c(cnn4C)cc3N3CC[C@H](O)C3)c(C)o2)ccn1 [Example 41, (S)—N—(5-(3-hydroxypyrrolidin-1-yl)-1-methyl-1H-indazol-6-yl)-5-methyl-2-(2-methylpyridin-4-yl)oxazole-4-carboxamide hydrochloride] |
| 62 | 95 | > 7.00 | CCn1ncc2cc(N3CC[C@H](O)C3)c(NC(=O)c3coc(-c4ccnc(C)c4)n3)cc21 [Example 32, (S)—N—(1-ethyl-5-(3-hydroxypyrrolidin-1-yl)-1H-indazol-6-yl)-2-(2-methylpyridin-4-yl)oxazole-4-carboxamide hydrochloride] |
| 34 | 89 | 6.60 to 7.00 | Cn1cc2cc(N3CCC(O)CC3)c(NC(=O)c3cnn4cccnc34)cc2n1 [Example 47, N—(5-(4-hydroxypiperidin-1-yl)-2-methyl-2H-indazol-6-yl)pyrazolo[1,5-a]pyrimidine-3-carboxamide hydrochloride] |
| 0 | 0 |  | Cn1ncc2cc(N3CC[C@H](O)C3)c(NC(=O)c3coc(C4CCNCC4)n3)cc21 [Example 37, (S)—N—(5-(3-hydroxypyrrolidin-1-yl)-1-methyl-1H-indazol-6-yl)-2-(piperidin-4-yl)oxazole-4-carboxamide hydrochloride] |

— patent US20170152263A1, “Substituted Indazole Compounds as IRAK4 Inhibitors” (AURIGENE DISCOVERY TECHNOLOGIES LIMITED, priority 2014, published 2017)
